According to PubChem BioAssay AID2060351 (Molecular Pharmacology Branch, DTP, NCI, 2025):
pIC50: −log10 of the molar value. Values joined by “and” are separate entries in the source; they are usually repeats but may differ in a detail not shown here. Equal values may be shown once.

Test system: 521955-158-R7-J2-PDC spheroids, viability % test/control
Experiment: Anticancer human tumor 521955-158-R7-J2-PDC patient-derived pancreatic carcinoma cell line growth inhibition [TAK]
Settings: spheroids with HUVEC and MSC; for viability, T/C: stronger effect = lower value
How it was run: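 Spheroids of 60% malignant cells, 25% HUVEC and 15% hMSC were exposed to targeted agents combined with TAK-243 or ipatasertib. Concentrations started at or near clinical Cmax (10 microM if unknown) and descended in half-log steps.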

[1] = curve of first compound, second compound 0.3 µM
[2] = curve of first compound, second compound 0.949 µM
[3] = curve of first compound, second compound 3 µM
[4] = curve of first compound, second compound 9.49 µM
[5] = curve of first compound, second compound 30 µM
[6] = second compound 0.3 µM, first compound 0.0316 µM
[7] = second compound 0.3 µM, first compound 0.1 µM
[8] = second compound 0.3 µM, first compound 0.316 µM
[9] = second compound 0.3 µM, first compound 1 µM
[10] = second compound 0.3 µM, first compound 3.16 µM
[11] = second compound 0.3 µM, first compound 10 µM
[12] = second compound 0.949 µM, first compound 0.0316 µM
[13] = second compound 0.949 µM, first compound 0.1 µM
[14] = second compound 0.949 µM, first compound 0.316 µM
[15] = second compound 0.949 µM, first compound 1 µM
[16] = second compound 0.949 µM, first compound 3.16 µM
[17] = second compound 0.949 µM, first compound 10 µM
[18] = second compound 3 µM, first compound 0.0316 µM
[19] = second compound 3 µM, first compound 0.1 µM
[20] = second compound 3 µM, first compound 0.316 µM
[21] = second compound 3 µM, first compound 1 µM
[22] = second compound 3 µM, first compound 3.16 µM
[23] = second compound 3 µM, first compound 10 µM
[24] = second compound 9.49 µM, first compound 0.0316 µM
[25] = second compound 9.49 µM, first compound 0.1 µM
[26] = second compound 9.49 µM, first compound 0.316 µM
[27] = second compound 9.49 µM, first compound 1 µM
[28] = second compound 9.49 µM, first compound 3.16 µM
[29] = second compound 9.49 µM, first compound 10 µM
[30] = second compound 30 µM, first compound 0.0316 µM
[31] = second compound 30 µM, first compound 0.1 µM
[32] = second compound 30 µM, first compound 0.316 µM
[33] = second compound 30 µM, first compound 1 µM
[34] = second compound 30 µM, first compound 3.16 µM
[35] = second compound 30 µM, first compound 10 µM
[36] = second compound 0.3 µM, first compound 0.00316 µM
[37] = second compound 0.3 µM, first compound 0.01 µM
[38] = second compound 0.949 µM, first compound 0.00316 µM
[39] = second compound 0.949 µM, first compound 0.01 µM
[40] = second compound 3 µM, first compound 0.00316 µM
[41] = second compound 3 µM, first compound 0.01 µM
[42] = second compound 9.49 µM, first compound 0.00316 µM
[43] = second compound 9.49 µM, first compound 0.01 µM
[44] = second compound 30 µM, first compound 0.00316 µM
[45] = second compound 30 µM, first compound 0.01 µM
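Also: spheroids exposed to compound for 7 days before readout.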
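For viability, T/C in this document: 100% = DMSO vehicle control wells.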

CC(C)(C)c1nc(-c2cccc(NS(=O)(=O)c3c(F)cccc3F)c2F)c(-c2ccnc(N)n2)s1 + CC(C)NCC(C(=O)N1CCN(c2ncnc3c2C(C)CC3O)CC1)c1ccc(Cl)cc1
pIC50 [1]: < 5.00
pIC50 [2]: < 5.00
pIC50 [3]: < 5.00
pIC50 [4]: < 5.00
pIC50 [5]: < 5.00
viability, T/C [6]: 111%
viability, T/C [7]: 94.3%
viability, T/C [8]: 106%
viability, T/C [9]: 131%
viability, T/C [10]: 101%
viability, T/C [11]: 74.2%
viability, T/C [12]: 89.3%
viability, T/C [13]: 102%
viability, T/C [14]: 90.4%
viability, T/C [15]: 103%
viability, T/C [16]: 92.7%
viability, T/C [17]: 60.3%
viability, T/C [18]: 95%
viability, T/C [19]: 115%
viability, T/C [20]: 108%
viability, T/C [21]: 130%
viability, T/C [22]: 101%
viability, T/C [23]: 71.5%
viability, T/C [24]: 127%
viability, T/C [25]: 115%
viability, T/C [26]: 117%
viability, T/C [27]: 119%
viability, T/C [28]: 105%
viability, T/C [29]: 83.7%
viability, T/C [30]: 111%
viability, T/C [31]: 130%
viability, T/C [32]: 138%
viability, T/C [33]: 136%
viability, T/C [34]: 130%
viability, T/C [35]: 97.2%

CC(C)CC(NC(=O)CNC(=O)c1cc(Cl)ccc1Cl)B1OC(=O)CC(CC(=O)O)(C(=O)O)O1 (stereo unspecified) + CC(C)NCC(C(=O)N1CCN(c2ncnc3c2C(C)CC3O)CC1)c1ccc(Cl)cc1
pIC50 [1]: 7.41
pIC50 [2]: 7.32
pIC50 [3]: 7.38
pIC50 [4]: 7.46
pIC50 [5]: 7.48
viability, T/C (second compound 0.3 µM, first compound 0.000316 µM): 103%
viability, T/C (second compound 0.3 µM, first compound 0.001 µM): 71.9%
viability, T/C [36]: 96.8%
viability, T/C [37]: 104%
viability, T/C [6]: 60.1%
viability, T/C [7]: 3.16%
viability, T/C (second compound 0.949 µM, first compound 0.000316 µM): 119%
viability, T/C (second compound 0.949 µM, first compound 0.001 µM): 92.2%
viability, T/C [38]: 87.6%
viability, T/C [39]: 103%
viability, T/C [12]: 74.7%
viability, T/C [13]: 4.69%
viability, T/C (second compound 3 µM, first compound 0.000316 µM): 85.6%
viability, T/C (second compound 3 µM, first compound 0.001 µM): 90.8%
viability, T/C [40]: 109%
viability, T/C [41]: 85.9%
viability, T/C [18]: 64.8%
viability, T/C [19]: 5.79%
viability, T/C (second compound 9.49 µM, first compound 0.000316 µM): 116%
viability, T/C (second compound 9.49 µM, first compound 0.001 µM): 98.8%
viability, T/C [42]: 82.7%
viability, T/C [43]: 86.4%
viability, T/C [24]: 58.1%
viability, T/C [25]: 4.1%
viability, T/C (second compound 30 µM, first compound 0.000316 µM): 95.1%
viability, T/C (second compound 30 µM, first compound 0.001 µM): 105%
viability, T/C [44]: 88.7%
viability, T/C [45]: 80.9%
viability, T/C [30]: 52.4%
viability, T/C [31]: 2.42%

Cn1cnc2c(F)c(Nc3ccc(Br)cc3Cl)c(C(=O)NOCCO)cc21
viability, T/C (compound 0.00949 µM): 66.3% and 85.1%
viability, T/C (compound 0.03 µM): 54.9% and 61.7%
viability, T/C (compound 0.0949 µM): 38.7% and 44.3%
viability, T/C (compound 0.3 µM): 31.6% and 43.3%
viability, T/C (compound 0.949 µM): 25.7% and 30%
viability, T/C (compound 3 µM): 14.6% and 16.5%
pIC50 (curve of compound): 7.38 and 7.06

CC(=O)Nc1cccc(-n2c(=O)n(C3CC3)c(=O)c3c(Nc4ccc(I)cc4F)n(C)c(=O)c(C)c32)c1
viability, T/C (compound 94.9 pM): 97.3% and 89.9%
viability, T/C (compound 0.0003 µM): 67.1% and 65.7%
viability, T/C (compound 0.000949 µM): 57.9% and 54.9%
viability, T/C (compound 0.003 µM): 48.7% and 39.5%
viability, T/C (compound 0.00949 µM): 32.1% and 27.2%
viability, T/C (compound 0.03 µM): 19.2% and 16.3%
pIC50 (curve of compound): 8.72 and 8.90

COc1c(OCCCN2CCOCC2)ccc2c3n(c(=NC(=O)c4cnc(N)nc4)nc12)CCN3 + CC(C)NCC(C(=O)N1CCN(c2ncnc3c2C(C)CC3O)CC1)c1ccc(Cl)cc1
pIC50 [1]: 7.66
pIC50 [2]: 7.66
pIC50 [3]: 8.14
pIC50 [4]: 8.21
pIC50 [5]: 8.47
viability, T/C [36]: 102%
viability, T/C [37]: 67.6%
viability, T/C [6]: 40.9%
viability, T/C [7]: 27.5%
viability, T/C [8]: 13.7%
viability, T/C [9]: 11%
viability, T/C [38]: 81%
viability, T/C [39]: 66.5%
viability, T/C [12]: 43.1%
viability, T/C [13]: 19.6%
viability, T/C [14]: 13.7%
viability, T/C [15]: 9.02%
viability, T/C [40]: 55%
viability, T/C [41]: 51.1%
viability, T/C [18]: 29.2%
viability, T/C [19]: 24.9%
viability, T/C [20]: 13%
viability, T/C [21]: 10.4%
viability, T/C [42]: 64.3%
viability, T/C [43]: 36.3%
viability, T/C [24]: 31%
viability, T/C [25]: 21.7%
viability, T/C [26]: 14.3%
viability, T/C [27]: 12.2%
viability, T/C [44]: 50.4%
viability, T/C [45]: 40.6%
viability, T/C [30]: 27.8%
viability, T/C [31]: 19.8%
viability, T/C [32]: 17.1%
viability, T/C [33]: 11.5%

Cc1nc(NC(=O)N2CCCC2C(N)=O)sc1-c1ccnc(C(C)(C)C(F)(F)F)c1 (stereo unspecified) + CC(C)NCC(C(=O)N1CCN(c2ncnc3c2C(C)CC3O)CC1)c1ccc(Cl)cc1
pIC50 [1]: 5.25
pIC50 [2]: 5.52
pIC50 [3]: 5.88
pIC50 [4]: 6.42
pIC50 [5]: 6.55
viability, T/C [6]: 106%
viability, T/C [7]: 106%
viability, T/C [8]: 83.6%
viability, T/C [9]: 62.2%
viability, T/C [10]: 69.5%
viability, T/C [11]: 38.6%
viability, T/C [12]: 84%
viability, T/C [13]: 82.6%
viability, T/C [14]: 64.6%
viability, T/C [15]: 54.7%
viability, T/C [16]: 60.5%
viability, T/C [17]: 33.6%
viability, T/C [18]: 90%
viability, T/C [19]: 79%
viability, T/C [20]: 54.6%
viability, T/C [21]: 57.3%
viability, T/C [22]: 45.4%
viability, T/C [23]: 30.8%
viability, T/C [24]: 92.6%
viability, T/C [25]: 70.1%
viability, T/C [26]: 48%
viability, T/C [27]: 43%
viability, T/C [28]: 36.7%
viability, T/C [29]: 27.8%
viability, T/C [30]: 93.7%
viability, T/C [31]: 79.7%
viability, T/C [32]: 44.6%
viability, T/C [33]: 43.2%
viability, T/C [34]: 39.7%
viability, T/C [35]: 25.6%

CC(C)(C)c1nc(-c2cccc(NS(=O)(=O)c3c(F)cccc3F)c2F)c(-c2ccnc(N)n2)s1
viability, T/C (compound 0.0316 µM): 105% and 103%
viability, T/C (compound 0.1 µM): 113% and 78.3%
viability, T/C (compound 0.316 µM): 99% and 128%
viability, T/C (compound 1 µM): 101% and 131%
viability, T/C (compound 3.16 µM): 104% and 97.7%
viability, T/C (compound 10 µM): 79% and 93.3%
pIC50 (curve of compound): < 5.00
